Results reported in paper PMC6017357, “In Vitro Inhibitory Effects of Synthetic Cannabinoid EAM-2201 on Cytochrome P450 and UDP-Glucuronosyltransferase Enzyme Activities in Human Liver Microsomes” (Molecules : A Journal of Synthetic Chemistry and Natural …, 2018).

Biological target: T1, CYP2A6 (Homo sapiens, UniProt P11509)
T1 construct: from tissue; host or cells: ultrapooled human liver microsomes
T1 sequence (P11509 1-494): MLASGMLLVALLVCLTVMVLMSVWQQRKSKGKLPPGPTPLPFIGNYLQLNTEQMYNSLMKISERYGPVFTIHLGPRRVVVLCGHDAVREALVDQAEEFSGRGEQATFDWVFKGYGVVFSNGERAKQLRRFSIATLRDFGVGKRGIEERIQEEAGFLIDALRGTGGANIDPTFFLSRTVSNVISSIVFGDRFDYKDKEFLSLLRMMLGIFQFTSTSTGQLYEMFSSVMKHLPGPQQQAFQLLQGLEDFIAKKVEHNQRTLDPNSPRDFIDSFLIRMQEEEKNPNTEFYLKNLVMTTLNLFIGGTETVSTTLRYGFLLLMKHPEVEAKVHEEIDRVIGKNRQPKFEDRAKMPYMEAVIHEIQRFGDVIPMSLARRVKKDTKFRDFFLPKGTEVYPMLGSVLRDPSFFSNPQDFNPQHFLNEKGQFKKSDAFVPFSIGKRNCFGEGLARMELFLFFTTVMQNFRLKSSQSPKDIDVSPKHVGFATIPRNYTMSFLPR
Assay: CYP2A6-mediated coumarin 7-hydroxylation in pooled human liver microsomes
Type: in vitro ADME
Conditions: up to 50 µM, without 30-min preincubation
Procedure: The inhibitory potential (IC50 values) of EAM-2201 on CYP1A2, CYP2A6, CYP2C8, CYP2C9, CYP2C19, CYP2D6 and CYP3A4 were evaluated using ultrapooled human liver microsomes and a cocktail of seven CYP substrates followed by LC-tandem mass spectrometry (LC-MS/MS) as previously described. […] Aliquots (5 µL) of the diluted supernatants were analyzed using LC-MS/MS. […]
The metabolites formed from CYP substrates were simultaneously quantified using our previously described LC-MS/MS method. […] Quantification was performed by selected reaction monitoring (SRM) of the [M + H]^+ ion and the related product ion for each metabolite: acetaminophen, 152.1 > 110.3; N-desethylamodiaquine, 328.1 > 283.0; 7-hydroxycoumarin, 163.0 > 107.2; 4-hydroxybupropion, 256.1 > 238.0; 4′-hydroxydiclofenac, 312.0 > 231.1; 4′-hydroxy-mephenytoin, 235.1 > 150.1; 1′-hydroxybufuralol, 278.1 > 186.1; 1′-hydroxymidazolam, 341.9 > 324.0; ^13C2,^15N-acetaminophen, 155.1 > 111.2; and d9-1′-hydroxybufuralol, 287.2 > 187.0. […]

CCc1ccc(C(=O)c2cn(CCCCCF)c3ccccc23)c2ccccc12 [EAM-2201, (4-ethyl-1-naphthalenyl)[1-(5-fluoropentyl)-1H-indol-3-yl]-methanone]
inhibition of CYP2A6-mediated coumarin 7-hydroxylation: negligibly inhibited
